Laboratory results as given in US5120831A, “Metal-peptide compositions” (ProCyte Corporation, priority 1989, dated 1992).
Entries after “also recorded” stand apart in the source; their conditions may differ.

Assays:
hair growth [1] = test: Stimulation of hair growth in shaved mice by subdermal/intradermal injection; type: in vivo; details: for significant acceleration of hair growth within, following injection: injected once; for significant acceleration of hair growth within, following the injection: Example 12: 500 and 1000 micrograms per mouse; for % POS. RESPONSE: hair growth at both injection sites = positive; for hair growth (photograph of injected mice): visual, injection sites versus surrounding shaved areas
Description: Increasing doses of glycyl-L-histidyl-L-lysyl-L-valyl-L-phenylalanyl-L-valine:copper(II) in aqueous solution was infiltrated under the skin in two locations. Mice are examined daily for signs of hair growth in the shaved area and at the injection sites. […] Hair growth at both injection sites is considered a positive response.
Mice were shaved and injected in two locations with an aqueous solution of glycyl-L-histidyl-L-lysine octyl ester:metal ion (GHL octyl:metal ion) at a ratio of peptide to metal ion of 2:1. A dose of 500 micrograms was injected per mouse.
Hair growth at both injection sites is considered a positive response.
Mice were shaved and injected in two locations with an aqueous solution of L-lysyl-L-histidyl-glycine octyl ester:copper(II) (LHG Octyl:Cu) and L-lysyl-L-histidyl-glycyl-L-L-valyl-L-phenylalanyl-L-valine:Cu (LGHVFV:Cu) at a ratio of peptide to metal ion of 2:1, and at a dose of 500 and 1000 micrograms per mouse. Hair growth at both injection sites is considered a positive response.
Mice were shaved and injected intradermally in two locations with various doses of glycyl-L-(3-methyl)-histidyl-L-lysyl-glycyl-L-tryptophan:copper(II). […] Hair growth at both injection sites is considered a positive response.
Mice were shaved and injected once with glycyl-L-histidyl-L-lysine n-octyl ester:copper(II) at a dose of 500 micrograms per mouse.
A group of ten mice were shaved and injected once with glycyl-L-histidyl-L-lysine decyl ester:copper(II) at a dose of 500 micrograms per mouse.
A group of 10 mice were shaved and injected once with glycyl-L-histidyl-L-lysine palmityl ester:copper(II) at a dose of 500 micrograms per mose.

[2] = system: hair follicles and subcutaneous fat layer; test: Histological evaluation of skin biopsies through the area of accelerated hair growth; type: in vivo, mice; details: for subcutaneous fat layer in histological sections / hair follicles in histological sections: skin biopsy through the site of injection / area of accelerated hair growth
Description: Moreover, the surrounding skin contains telogen state follicles resting in the dermal layer, and a gradation of effect is observed as you move closer to the injection site. […] FIG. 4 is a photograph which illustrates the histological section from a mouse injection with glycyl-L-histidyl-L-lysyl-L-valyl-L-phenylalanyl-L-valine:copper(II). The area of injection is on the right side of the photograph. A decrease in hair follicle density and the subcutaneous fat layer is observed at increasing distance from the injection site.
It is known that the thickness of this fat layer is directly associated with hair growth. This increase in subcutaneous fat is shown by taking a biopsy sample at day 21 through the area and sectioning for histology slides. […] The injected area is on the right with the adjacent uninjected area on the left of the photograph.
A group of ten mice were shaved and injected once with glycyl-L-histidyl-L-lysine decyl ester:copper(II) at a dose of 500 micrograms per mouse. […]

hair growth [3] = test: Stimulation of hair growth in shaved mice by daily topical application; type: in vivo; details: treated daily; 1% (w/w) in Nonocynol-9 5% / Unibase Cream 94%; peptide to metal ion 2:1
Description: Hair growth at the treated site is considered a positive response.

[4] = two locations, peptide to metal ion 2:1
[5] = dose 0.5 mg, two locations, peptide to metal ion 2:1
[6] = dose 1.0 mg, two locations, peptide to metal ion 2:1
[7] = Exp. 1, dose 500 mg, intradermally in two locations

Substance: glycyl-L-histidyl-L-lysine octyl ester:copper(II) [GHL Octyl:Cu(II)]
- POSITIVE RESPONSE (No. Positive/Total No.) (hair growth [1]; 500 micrograms per mouse, two locations, peptide to metal ion 2:1, hair growth at both sites = positive): 4/4
- significant acceleration of hair growth within, following injection (hair growth [1]; 500 micrograms per mouse): 2-3 weeks
- increase in the subcutaneous fat layer in the skin near the injection site (measurements) ([2]; biopsy at day 21, 500 micrograms per mouse, injected once, versus adjacent uninjected area): approximately threefold increase
- number and size of the fat cells ([2]; biopsy at day 21, injected area versus adjacent uninjected area): obvious increase in both the number and size of the fat cells
- subcutaneous fat layer in histological sections ([2]; listed as glycyl-L-histidyl-L-lysine n-octyl ester:copper(II)): significant increase in the thickness of the subcutaneous fat layer

Substance: L-lysyl-L-histidyl-glycine octyl ester:copper(II) [LHG-Octyl:Cu]
- significant acceleration of hair growth within, following the injection (hair growth [1]; [4]): 2-3 weeks
- POSITIVE RESPONSE (No. Positive/Total No.) (hair growth [1]; [5]): 8/8
- POSITIVE RESPONSE, percent (hair growth [1]; [5]): 100%
- POSITIVE RESPONSE (No. Positive/Total No.) (hair growth [1]; [6]): 5/5
- POSITIVE RESPONSE, percent (hair growth [1]; [6]): 100%

Substance: L-lysyl-L-histidyl-glycyl-L-valyl-L-phenylalanyl-L-valine:copper(II) [LHGVFV:Cu]
- significant acceleration of hair growth within, following the injection (hair growth [1]; [4]): 2-3 weeks
- POSITIVE RESPONSE (No. Positive/Total No.) (hair growth [1]; [5]): 9/10
- POSITIVE RESPONSE, percent (hair growth [1]; [5]): 90%
- POSITIVE RESPONSE (No. Positive/Total No.) (hair growth [1]; [6]): 5/5
- POSITIVE RESPONSE, percent (hair growth [1]; [6]): 100%

Substance: glycyl-L-(3-methyl)-histidyl-L-lysyl-glycyl-L-tryptophan:copper(II)
- hair growth noted within, following the injections (hair growth [1]; Example 14: various doses, intradermally in two locations): 2-3 weeks
- POSITIVE RESPONSE (No. Positive/Total No.) (hair growth [1]; [7]): 5/5
- POSITIVE RESPONSE, percent (hair growth [1]; [7]): 100%
- POSITIVE RESPONSE, percent (hair growth [1]; Exp. 2, dose 250 mg, intradermally in two locations): 100%
- POSITIVE RESPONSE (No. Positive/Total No.) (hair growth [1]; Exp. 2, intradermally in two locations): 5/5

Substance: glycyl-L-histidyl-L-lysine palmityl ester:copper(II)
- significant acceleration of hair growth within, following injection (hair growth [1]; 500 micrograms per mouse): 2-3 weeks
- hair follicles in histological sections [2]: large number of developing hair follicles within the subcutaneous fat layer

Substance: glycyl-L-histidyl-L-lysyl-L-valyl-L-phenylalanyl-L-valine:copper(II)
- diameter of circle of growth (hair growth [1]; 0.5 mg injection): approximately 0.5 cm
- % POS. RESPONSE (hair growth [1]; dose 0.10 mg/inj., injected under the skin in two locations): 86%
- % POS. RESPONSE (hair growth [1]; dose 0.25 mg/inj., two locations): 89%
- % POS. RESPONSE (hair growth [1]; dose 0.50 mg/inj., two locations): 89%
- % POS. RESPONSE (hair growth [1]; dose 1.00 mg/inj., two locations): 95%
- active hair growth takes place between (hair growth [1]; following injection): 14 to 20 days
- indications of hair growth seen within (hair growth [1]; following injection): ≤ 10 days
- maximum effect seen by (hair growth [1]; following injection): ≤ 28 days
- stimulated hair growth at and around the injection site by days (hair growth [1]; increasing doses, two locations, shaved on day 1): 14 to 21 days
- hair growth at 25 days from the date of injection (photograph) (hair growth [1]; single injection site, versus control mouse injected with saline): accelerated hair growth
- positive response, % of the mice injected (hair growth [1]; summary of series of experiments of Table 1, no response with saline): 80-90%
- hair growth (photograph of injected mice) (hair growth [1]): accelerated hair growth at two injection sites
- mice showing accelerated hair growth in the area of topical application (number) (hair growth [3]): Four of the five
- mice showing accelerated hair growth in the area of topical application (percent) (hair growth [3]): 80%
- hair follicles in histological sections [2]: anagen state follicles
- subcutaneous fat layer in histological sections [2]: thickening of the fat layer

Substance: glycyl-L-histidyl-L-lysine decyl ester:copper(II)
- significant acceleration of hair growth within, following injection (hair growth [1]; 500 micrograms per mouse): 2-3 weeks
- hair growth (photograph of injected mice) (hair growth [1]): stimulated hair growth
- hair shaft units within the subcutaneous fat layer ([2]; biopsy of area of accelerated growth, 500 micrograms per mouse, injected once): marked proliferation of hair shaft units; also recorded: marked proliferation of hair shafts
- hair follicles in histological sections [2]: increased hair growth, fat cell layer and increased hair follicle density
